Data as given in US10053428B2, “5-aminotetrahydroquinoline-2-carboxylic acids and their use” (BAYER PHARMA AKTIENGESELLSCHAFT, priority 2012, dated 2018).
Like-named read-outs stand apart in the source and are kept apart here.

Legend:
[1] = tested on: recombinant guanylate cyclase reporter cell line; assay: sGC-activating activity in the CHO reporter cell in vitro; assay type: cell-based; conditions: read-out: MEC (minimum effective concentration)
Experimental: B-2. Action at a Recombinant Guanylate Cyclase Reporter Cell Line
The cellular action of the compounds according to the invention is determined at a recombinant guanylate cyclase reporter cell line, as described in F. Wunder et al., Anal. Biochem. 32, 104-112 (2005).

saphenous artery rings = assay: Vasorelaxant effect in vitro (phenylephrine-contracted saphenous artery rings); design: species or system Rabbits; conditions: rabbit saphenous artery rings, read-out: IC50 (concentration reducing phenylephrine-induced contraction by 50%)
Experimental: B-3. Vasorelaxant Effect In Vitro
Rabbits are anaesthetized and sacrificed by intravenous injection of thiopental sodium (about 50 mg/kg) and exsanguinated. The saphenous artery is removed and divided into rings 3 mm wide. The rings are mounted singly on in each case a pair of triangular hooks open at the end and made of 0.3 mm-thick special wire (Remanium®). Each ring is placed under an initial tension in 5 ml organ baths with Krebs-Henseleit solution which is at 37° C., is gassed with carbogen and has the following composition: NaCl 119 mM; KCl 4.8 mM; CaCl2×2 H2O 1 mM; MgSO4×7H2O 1.4 mM; KH2PO4 1.2 mM; NaHCO3 25 mM; glucose 10 mM; bovine serum albumin 0.001%. The force of contraction is detected with Statham UC2 cells, amplified and digitized via A/D converters (DAS-1802 HC, Keithley Instruments, Munich) and recorded in parallel on chart recorders. Contractions are induced by addition of phenylephrine.
After several (generally 4) control cycles, the substance to be investigated is added in each further run in increasing dosage, and the level of the contraction achieved under the influence of the test substance is compared with the level of the contraction reached in the last preceding run. The concentration necessary to reduce the contraction reached in the preceding control by 50% is calculated from this (IC50). The standard application volume is 5 μl. The proportion of DMSO in the bath solution corresponds to 0.1%.

[2] = target: T1, haem-free recombinant soluble guanylate cyclase (sGC) (Rattus norvegicus, UniProt P20595); assay: Stimulation of recombinant soluble guanylate cyclase (sGC) in vitro, haem-free enzyme; assay type: biochemical
T1 construct: made in house; host or cells: Sf9 insect cells (baculovirus)
T1 sequence (P20595 1-619): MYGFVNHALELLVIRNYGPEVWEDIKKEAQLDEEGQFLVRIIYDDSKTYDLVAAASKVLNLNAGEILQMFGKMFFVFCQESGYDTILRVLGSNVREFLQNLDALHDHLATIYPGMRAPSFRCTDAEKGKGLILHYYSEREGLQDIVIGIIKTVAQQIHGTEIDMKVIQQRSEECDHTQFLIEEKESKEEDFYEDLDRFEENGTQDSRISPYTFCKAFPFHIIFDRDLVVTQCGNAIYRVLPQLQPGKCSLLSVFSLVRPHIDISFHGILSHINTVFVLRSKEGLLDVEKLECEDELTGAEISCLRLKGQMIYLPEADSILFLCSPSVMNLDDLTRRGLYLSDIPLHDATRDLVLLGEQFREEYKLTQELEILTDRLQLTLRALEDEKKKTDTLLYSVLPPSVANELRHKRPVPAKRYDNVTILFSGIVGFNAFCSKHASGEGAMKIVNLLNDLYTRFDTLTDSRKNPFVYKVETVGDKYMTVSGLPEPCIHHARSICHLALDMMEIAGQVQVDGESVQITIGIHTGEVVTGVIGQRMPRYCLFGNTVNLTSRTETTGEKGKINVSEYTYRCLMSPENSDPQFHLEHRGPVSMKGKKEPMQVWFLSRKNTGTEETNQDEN
T1 sequence (P19686 1-690 partner): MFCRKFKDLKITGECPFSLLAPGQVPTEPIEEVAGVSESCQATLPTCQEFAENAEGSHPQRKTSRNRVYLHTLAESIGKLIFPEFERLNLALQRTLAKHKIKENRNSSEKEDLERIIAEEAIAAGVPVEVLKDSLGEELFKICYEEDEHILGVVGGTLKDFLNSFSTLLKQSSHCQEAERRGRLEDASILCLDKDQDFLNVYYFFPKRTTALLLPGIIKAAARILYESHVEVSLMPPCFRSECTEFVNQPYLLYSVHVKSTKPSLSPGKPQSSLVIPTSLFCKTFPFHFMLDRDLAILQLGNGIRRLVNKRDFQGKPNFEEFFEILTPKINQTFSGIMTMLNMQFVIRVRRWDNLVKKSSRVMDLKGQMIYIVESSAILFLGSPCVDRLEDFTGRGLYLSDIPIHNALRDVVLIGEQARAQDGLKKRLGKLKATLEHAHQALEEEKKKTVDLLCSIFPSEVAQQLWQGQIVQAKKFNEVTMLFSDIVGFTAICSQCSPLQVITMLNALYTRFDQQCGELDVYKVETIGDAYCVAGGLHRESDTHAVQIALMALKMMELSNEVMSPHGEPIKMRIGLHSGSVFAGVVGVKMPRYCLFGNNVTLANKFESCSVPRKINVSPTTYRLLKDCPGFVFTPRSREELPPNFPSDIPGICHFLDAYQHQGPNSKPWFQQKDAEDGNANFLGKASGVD
Experimental: (§1) B-1. Stimulation of Recombinant Soluble Guanylate Cyclase (sGC) In Vitro
(§2) Investigations on the stimulation of recombinant soluble guanylate cyclase (sGC) by the compounds according to the invention with and without sodium nitroprusside, and with and without the haem-dependent sGC inhibitor 1H-1,2,4-oxadiazolo[4,3a]quinoxalin-1-one (ODQ), are carried out by the method described in detail in the following reference: M. Hoenicka, E. M. Becker, H. Apeler, T. Sirichoke, H. Schroeder, R. Gerzer and J.-P. Stasch, “Purified soluble guanylyl cyclase expressed in a baculovirus/Sf9 system: Stimulation by YC-1, nitric oxide, and carbon oxide”, J. Mol. Med 77 (1999), 14-23. The haem-free guanylate cyclase is obtained by adding Tween 20 to the sample buffer (0.5% in the final concentration).
The activation of sGC by a test substance is reported as x-fold stimulation of the basal activity. The result for Example 2 is shown in Table 1A, that for Example 23 in Table 1B and that for Example 39 in Table 1C: […]

[3] = target: T2, haem-containing recombinant soluble guanylate cyclase (sGC) (Rattus norvegicus, UniProt P20595); assay: Stimulation of recombinant soluble guanylate cyclase (sGC) in vitro, haem-containing enzyme; assay type: biochemical
T2 construct: made in house; host or cells: Sf9 insect cells (baculovirus)
T2 sequence (P20595 1-619): T1 sequence (P20595 1-619)
T2 sequence (P19686 1-690 partner): T1 sequence (P19686 1-690 partner)
Experimental: as §1, §2
The activation of sGC by a test substance is reported as x-fold stimulation of the basal activity. The result for Example 2 is shown in Table 1A, that for Example 23 in Table 1B and that for Example 39 in Table 1C:
[DEA/NO=2-(N,N-diethylamino)diazenolate 2-oxide; ODQ=1H-1,2,4-oxadiazolo-[4,3a]quinoxalin-1-one].

[4] = tested on: animal model of pulmonary hypertension; conditions: cited from earlier work

O=C(O)CCCCN(CCc1ccccc1OCc1ccc(-c2ccc(C(F)(F)F)cc2)cc1)C1CCCc2nc(C(=O)O)ccc21 (single isomer, unassigned) [Example 18]
minimal effective concentration [1]: 0.3 nM | IC50 (saphenous artery rings; Oryctolagus cuniculus): 0.4 nM

Cc1ccc2oc(-c3ccc(COc4ccccc4CCN(CCCCC(=O)O)C4CCCc5nc(C(=O)O)ccc54)cc3)nc2c1 (single isomer, unassigned; enantiomer 1) [Example 1, (−)-5-{(4-Carboxybutyl)[2-(2-{[4-(5-methyl-1,3-benzoxazol-2-yl)benzyl]oxy}phenyl)ethyl]-amino}-5,6,7,8-tetrahydroquinoline-2-carboxylic acid (Enantiomer 1)]
minimal effective concentration [1]: 160 nM | IC50 (saphenous artery rings): 571 nM

O=C(O)CCCCN(CCc1ccccc1OCc1ccc(CCc2ccccc2)cc1)C1CCCc2nc(C(=O)O)ccc21 (single isomer, unassigned; enantiomer 1) [Example 13, 5-{(4-Carboxybutyl)[2-(2-{[4-(2-phenylethyl)benzyl]oxy}phenyl)ethyl]amino}-5,6,7,8-tetrahydroquinoline-2-carboxylic acid (Enantiomer 1)]
minimal effective concentration [1]: 0.3 nM | IC50 (saphenous artery rings): 0.1 nM

Cc1ccc2oc(-c3ccc(COc4ccccc4CCN(CCCCC(=O)O)C4CCCc5nc(C(=O)O)ccc54)cc3)nc2c1 (single isomer, unassigned; enantiomer 2) [Example 2, (+)-5-{(4-Carboxybutyl)[2-(2-{[4-(5-methyl-1,3-benzoxazol-2-yl)benzyl]oxy}phenyl)ethyl]-amino}-5,6,7,8-tetrahydroquinoline-2-carboxylic acid (Enantiomer 2)]
Stimulation (x-fold), haem-free sGC, basal ([2]; test compound 0.01 μM): 5.2 ± 0.6 x-fold | Stimulation (x-fold), haem-free sGC, basal ([2]; test compound 0.1 μM): 19.9 ± 2.2 x-fold | Stimulation (x-fold), haem-free sGC, basal ([2]; test compound 1.0 μM): 82.7 ± 10.5 x-fold | Stimulation (x-fold), haem-free sGC, basal ([2]; test compound 10 μM): 169.5 ± 23.6 x-fold | minimal effective concentration [1]: 1.1 nM | IC50 (saphenous artery rings): 3.6 nM | Effect of combination with the NO donor DEA/NO on sGC stimulation ([3]; combination with DEA/NO): no synergistic effect | Stimulation (x-fold), haem-containing sGC, basal ([3]; test compound 0.01 μM): 13.7 ± 1.9 x-fold | Stimulation (x-fold), haem-containing sGC, +0.01 μM DEA/NO ([3]; test compound 0.01 μM): 20.2 ± 3.8 x-fold | Stimulation (x-fold), haem-containing sGC, +10 μM ODQ ([3]; test compound 0.01 μM): 63.9 ± 12.2 x-fold | Stimulation (x-fold), haem-containing sGC, basal ([3]; test compound 0.1 μM): 31.2 ± 3.5 x-fold | Stimulation (x-fold), haem-containing sGC, +0.01 μM DEA/NO ([3]; test compound 0.1 μM): 42.7 ± 7.2 x-fold | Stimulation (x-fold), haem-containing sGC, +10 μM ODQ ([3]; test compound 0.1 μM): 129.2 ± 18.9 x-fold | Stimulation (x-fold), haem-containing sGC, basal ([3]; test compound 1.0 μM): 40.2 ± 4.0 x-fold | Stimulation (x-fold), haem-containing sGC, +0.01 μM DEA/NO ([3]; test compound 1.0 μM): 56.5 ± 10.5 x-fold | Stimulation (x-fold), haem-containing sGC, +10 μM ODQ ([3]; test compound 1.0 μM): 172.2 ± 26.3 x-fold | Stimulation (x-fold), haem-containing sGC, basal ([3]; test compound 10 μM): 51.6 ± 6.4 x-fold | Stimulation (x-fold), haem-containing sGC, +0.01 μM DEA/NO ([3]; test compound 10 μM): 62.7 ± 11.0 x-fold | Stimulation (x-fold), haem-containing sGC, +10 μM ODQ ([3]; test compound 10 μM): 189.5 ± 28.2 x-fold

O=C(O)CCCCN(CCc1ccccc1OCc1ccc(CCc2ccccc2)cc1)Cc1ccc(C(=O)O)cc1 [BAY 58-2667, cinaciguat]
Duration of action ([4]; inhalative): did not have a sufficient duration of action | Pulmonary arterial pressure after inhalative administration ([4]; microparticles): dose-dependent selective reduction
